Data from US9650339B2, “Inhibitors of histone demethylases” (Gilead Sciences, Inc., priority 2013, dated 2017).

How the values were obtained:
Format in all cases: cell-based
[1] = system: L1236; assay: Cell proliferation assay L1236; conditions: Homo sapiens, L-1236; L1236, Hodgkin's lymphoma; method of Example 5
Procedure: (§1) MCF7 cells were seeded in multi well plates at a density optimized to give approximately 90% confluent cells at the time of harvest. Cells were incubated for 24 hours before addition of compound. Compounds were diluted in complete medium and added to the plates in duplicates. The final concentration of DMSO was maximum 0.5%. Complete medium used was DMEM with GlutaMAX containing 10% FBS and pen/strep.
(§2) 120 hours after addition of compounds, the plates were harvested and analyzed by ATPlite 1 Step (Perkin Elmer, cat no 6016739) according to the manufactures recommendation.
(§3) The assays were performed by the method of Example 5 by seeding the relevant cell line at a density optimized to give approximately 90% confluent cells at the time of harvest.

[2] = system: MDA MB 231; assay: Cell proliferation assay MDA MB 231; conditions: Homo sapiens; MDA MB 231, Breast carcinoma; method of Example 5
Procedure: as §1, §2, §3

[3] = system: ARPE19; assay: Cell proliferation assay ARPE19; conditions: Homo sapiens, ARPE-19; ARPE19, Retinal pigmented epithelium; method of Example 5
Procedure: as §1, §2, §3

[4] = molecular target: T1, KDM2A (Homo sapiens, UniProt Q9Y2K7); assay: Histone lysine demethylase immunofluorescence assay, U2OS cells transfected with KDM2A; conditions: U2OS cells transfected with pCMVHA KDM2A; mark detected H3K36me2; 20 hours
T1 construct: Full length; host or cells: U2OS
T1 sequence (Q9Y2K7 1-1162): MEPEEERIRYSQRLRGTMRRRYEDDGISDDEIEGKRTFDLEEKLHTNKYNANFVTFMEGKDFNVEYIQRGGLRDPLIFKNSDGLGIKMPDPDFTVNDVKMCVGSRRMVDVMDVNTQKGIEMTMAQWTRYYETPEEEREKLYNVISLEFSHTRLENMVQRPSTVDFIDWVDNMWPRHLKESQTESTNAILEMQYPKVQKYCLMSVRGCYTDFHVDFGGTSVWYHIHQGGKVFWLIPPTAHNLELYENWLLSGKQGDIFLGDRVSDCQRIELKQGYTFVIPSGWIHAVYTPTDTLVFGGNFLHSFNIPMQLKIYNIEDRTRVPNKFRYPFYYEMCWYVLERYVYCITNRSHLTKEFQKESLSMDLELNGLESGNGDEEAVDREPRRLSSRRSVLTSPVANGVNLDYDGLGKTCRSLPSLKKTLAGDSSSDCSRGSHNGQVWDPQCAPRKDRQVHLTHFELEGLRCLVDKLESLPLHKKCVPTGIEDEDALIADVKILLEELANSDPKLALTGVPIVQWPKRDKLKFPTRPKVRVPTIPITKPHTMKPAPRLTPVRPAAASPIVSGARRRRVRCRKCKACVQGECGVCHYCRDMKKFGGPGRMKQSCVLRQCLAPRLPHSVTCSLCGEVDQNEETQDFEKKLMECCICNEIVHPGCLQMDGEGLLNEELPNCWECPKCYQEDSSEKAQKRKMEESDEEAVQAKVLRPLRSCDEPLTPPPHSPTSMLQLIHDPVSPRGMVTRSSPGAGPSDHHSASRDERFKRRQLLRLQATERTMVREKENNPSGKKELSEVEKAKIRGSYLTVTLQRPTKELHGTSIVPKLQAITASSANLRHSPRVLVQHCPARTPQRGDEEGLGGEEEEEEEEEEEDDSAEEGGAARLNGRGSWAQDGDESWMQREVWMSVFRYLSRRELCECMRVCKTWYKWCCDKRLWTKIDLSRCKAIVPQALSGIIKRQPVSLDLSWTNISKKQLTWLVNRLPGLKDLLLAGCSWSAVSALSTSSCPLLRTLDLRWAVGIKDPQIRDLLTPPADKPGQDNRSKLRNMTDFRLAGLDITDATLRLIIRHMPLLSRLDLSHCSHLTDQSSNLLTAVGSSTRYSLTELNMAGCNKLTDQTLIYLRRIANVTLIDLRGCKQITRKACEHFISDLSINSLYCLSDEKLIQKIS
Procedure: U2OS cells were seeded 24 hours before transfection. Transfection was performed with Fugene HD transfection reagent as recommended by the manufacturer. 6 hours after transfection, the cells were harvested and seeded into multi well plates into media containing compound. The media used was DMEM containing 10% FBS and pen/strep. 20 hours after incubation of cells with compounds, the cells were washed in PBS, harvested by fixation with formaldehyde 4% aqueous solution, and washed in PBS. Subsequently, the cells were permeabilized in PBS with 0.2% Triton X-100 for. Blocking was performed in PBS with 0.2% Triton X-100 and 5% FBS. The cells were incubated with primary antibodies in blocking solution over night at 4° C. The primary antibodies used in the assays were HA.11 (Covance, MMS-101P) and the antibody detecting the mark specified in the table below. After incubation with primary antibodies, the cells were washed with PBS, incubated with secondary antibodies (Alexa fluor 594 goat anti rabbit IgG, Invitrogen, A11012; Alexa flour 488 donkey anti mouse IgG, Invitrogen, A21202) and Hoechst, (Sigma, 33342) in blocking solution, and washed again with PBS. Finally, PBS was added and high throughput imaging and analysis were performed by an IN Cell Analyzer 1000 (GE Healthcare). The robot software analyzed individual cells and divided these into HA+ (transfected cells) and HA− (non-transfected cells). The IC50 values were based on an average measure of the staining of the mark specified in the table below in the transfected cells.

[5] = system: MOLP2; assay: Cell proliferation assay MOLP2; conditions: Homo sapiens, MOLP-2; MOLP2, Myeloma; method of Example 5
Procedure: as §1, §2, §3

[6] = system: HEPG2; assay: Cell proliferation assay HEPG2; conditions: Homo sapiens; HEPG2, Hepatocellular carcinoma; method of Example 5
Procedure: as §1, §2, §3

[7] = system: OPM2; assay: Cell proliferation assay OPM2; conditions: Homo sapiens, OPM-2; OPM2, Myeloma; method of Example 5
Procedure: as §1, §2, §3

[8] = system: RAJI; assay: Cell proliferation assay RAJI; conditions: Homo sapiens, Burkitt's lymphoma, method of Example 5
Procedure: as §1, §2, §3

[9] = system: RPMI8226; assay: Cell proliferation assay RPMI8226; conditions: Homo sapiens, RPMI-8226; RPMI8226, Myeloma; method of Example 5
Procedure: as §1, §2, §3

[10] = system: BT474; assay: Cell proliferation assay BT474; conditions: Homo sapiens, BT-474; BT474, Mammary ductal carcinoma; method of Example 5
Procedure: as §1, §2, §3

[11] = system: MIA PACA2; assay: Cell proliferation assay MIA PACA2; conditions: Homo sapiens, MIA PaCa-2; MIA PACA2, Pancreas epithelial carcinoma; method of Example 5
Procedure: as §1, §2, §3

[12] = system: U2OS; assay: Cell proliferation assay U2OS; conditions: Homo sapiens, Osteosarcoma, method of Example 5
Procedure: as §1, §2, §3

[13] = system: KARPAS620; assay: Cell proliferation assay KARPAS620; conditions: Homo sapiens, Karpas-620; KARPAS620, Plasma cell leukemia; method of Example 5
Procedure: as §1, §2, §3

SMILES	EC50 [3]	IC50 [4]	EC50 [6]	EC50 [8]	EC50 [9]	other results
CCN(CCN(C)C)C(=O)CNCc1cc(CNC(=O)C(F)(F)F)ccn1 [Compound 25, N-[(2-{[({[2-(dimethylamino)ethyl]-(ethyl)carbamoyl}-methyl)amino]methyl}-pyrtdin-4-yl)methyl]-2,2,2-trifluoroacetamide]	> 2500 nM	> 2500 nM	> 2500 nM	> 2500 nM	–	EC50 [1]: > 2500 nM; EC50 [2]: > 2500 nM; EC50 [5]: 250 to 2500 nM; EC50 [7]: 250 to 2500 nM
C(=N/C1CC1)/c1ccnc(CNCCCN2CCCC2)c1 [Compound 42, N-{[2-({[3-(pyrrolidin-1-yl)propyl]amino}-methyl)pyridin-4-yl]methylidene}-cyclopropanamine]	> 2500 nM	–	> 2500 nM	> 2500 nM	> 2500 nM	EC50 [1]: > 2500 nM; EC50 [2]: > 2500 nM; EC50 [10]: 250 to 2500 nM; EC50 [7]: > 2500 nM; EC50 [11]: > 2500 nM; EC50 [12]: > 2500 nM; EC50 [13]: > 2500 nM
CCN(CC)CCCCNCc1cc(/C=N/CCO)ccn1 [Compound 61, 2-[{[2-({[4-(diethylamino)-butyl]amino}-methyl)pyridin-4-yl]methylidene}-amino]ethan-1-ol]	> 2500 nM	–	> 2500 nM	> 2500 nM	> 2500 nM	EC50 [10]: < 250 nM; EC50 [11]: > 2500 nM; EC50 [13]: < 250 nM
CCN(CCN(C)C)C(=O)CNCc1cc(C2OCC(Cc3ccccc3)CN2C(=O)C(F)(F)F)ccn1 (centres unmarked) [Compound 90, 2-[({4-[5-benzyl-3-(trifluoroacetyl)-1,3-oxazinan-2-yl]pyridin-2-yl}methyl)amino]-N-[2-(dimethylamino)-ethyl]-N-ethylacetamide]	–	–	> 2500 nM	> 2500 nM	250 to 2500 nM	EC50 [13]: < 250 nM
CCN(CCN(C)C)C(=O)CNCc1cc(C2OCC3(CC3)CN2C(=O)C(F)(F)F)ccn1 (centres unmarked) [Compound 91, N-[2--(dimethylamino)-ethyl]-N-ethyl-2-[({4-[7-(trifluoroacetyl)-5-oxa-7-azaspiro[2.5]-octan-6-yl]pyridin-2-yl}methyl)amino]-acetamide]	–	> 2500 nM	–	–	–	–
CN(Cc1ccccc1F)C(=O)CNCc1cc(/C=N/CCO)ccn1 [Compound 92, N-[(2-fluorophenyl)methyl]-2-[({4-[[(2-hydroxyethyl)imino]-methyl]pyridin-2-yl}methyl)amino]-N-methylacetamide]	–	> 2500 nM	–	–	–	–
OCC/N=C/c1ccnc(CNCCc2ccccc2OCc2ccccc2)c1 [Compound 93, 2-[({2-[({2-[2-(benzyloxy)phenyl]-ethyl}amino)methyl]-pyridin-4-yl}methylidene)-amino]ethan-1-ol]	–	> 2500 nM	–	–	–	–
CCN(CCC#N)C(=O)CNCc1cc(/C=N/CCO)ccn1 [Compound 94, N-(2-cyanoethyl)-N-ethyl-2-[({4-[[(2-hydroxyethyl)imino]-methyl]pyridin-2-yl}methyl)amino]-acetamide]	–	> 2500 nM	–	–	–	–
CC(C)C[C@H](NCc1cc(/C=N/CCO)ccn1)C(=O)N1CCCCC1 [Compound 95, (2S)-2-[({4-[[(2-hydroxyethyl)imino]-methyl]pyridin-2-yl}methyl)amino]-4-methyl-1-(piperidin-1-yl)pentan-1-one]	–	> 2500 nM	–	–	–	–
CCN(CC)CCCCNCc1cc(C=O)ccn1 [Compound 107, 2-({[4-(diethylamino)-butyl]amino}-methyl)pyridine-4-carbaldehyde]	> 2500 nM	–	–	–	> 2500 nM	EC50 [2]: > 2500 nM; EC50 [10]: < 250 nM; EC50 [5]: > 2500 nM; EC50 [7]: 250 to 2500 nM; EC50 [11]: > 2500 nM; EC50 [12]: > 2500 nM
CN(CC(=O)N1CCCCC1)Cc1cc(C=O)ccn1 [Compound 120, 2-({methyl[2-oxo-2-(piperidin-1-yl)ethyl]amino}-methyl)pyridine-4-carbaldehyde]	–	> 2500 nM	–	–	–	–
